This is an account of results in patent US9862717B2 (Merck Patent GmbH, priority 2014, dated 2018).

Where two headings read alike, the source gives them in different places.

This experiment deals with T1, CDK8/CycC (Homo sapiens, UniProt P49336).
T1 construct: purchased Invitrogen PV4402
Briefly: FRET based Lanthascreen binding competition assay for CDK8 inhibitory activity. The following applies: CDK8 co-expressed with CycC, class symbols. In outline:
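Competition binding of a dye-labeled ATP-competitive Alexa647 probe to CDK8 co-expressed with CycC, Eu-labeled via biotinylated anti-His antibody/streptavidin.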

One may read the IC50 as the point on the concentration scale where inhibition reaches its midpoint.

T1 sequence (P49336 whole entry): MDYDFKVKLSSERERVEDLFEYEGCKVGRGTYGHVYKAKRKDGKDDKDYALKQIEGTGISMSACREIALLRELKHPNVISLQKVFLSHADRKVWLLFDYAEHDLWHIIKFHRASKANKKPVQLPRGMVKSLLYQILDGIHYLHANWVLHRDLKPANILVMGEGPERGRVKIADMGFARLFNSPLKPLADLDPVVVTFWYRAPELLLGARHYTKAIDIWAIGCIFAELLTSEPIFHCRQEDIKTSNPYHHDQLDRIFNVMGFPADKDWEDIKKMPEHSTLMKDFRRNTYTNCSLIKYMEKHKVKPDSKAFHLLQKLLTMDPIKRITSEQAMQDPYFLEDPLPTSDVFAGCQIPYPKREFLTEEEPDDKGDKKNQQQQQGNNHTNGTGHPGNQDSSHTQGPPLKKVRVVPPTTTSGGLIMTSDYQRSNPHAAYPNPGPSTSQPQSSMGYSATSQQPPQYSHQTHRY
T1 sequence (P24863 whole entry partner): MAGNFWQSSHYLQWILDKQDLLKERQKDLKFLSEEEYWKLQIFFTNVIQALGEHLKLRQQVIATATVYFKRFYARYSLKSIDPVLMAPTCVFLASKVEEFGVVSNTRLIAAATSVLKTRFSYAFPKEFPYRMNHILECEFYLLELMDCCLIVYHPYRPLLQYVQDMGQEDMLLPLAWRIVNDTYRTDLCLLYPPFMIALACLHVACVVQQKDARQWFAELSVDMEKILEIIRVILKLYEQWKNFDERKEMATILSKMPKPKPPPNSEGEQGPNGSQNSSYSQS

`Cc1n[nH]c2ncc(C(=O)N3CC(O)CC3c3ccc(F)cc3)cc12` (stereo not shown) [compound 127, [2-(4-Fluoro-phenyl)-4-hydroxy-pyrrolidin-1-yl]-(3-methyl-1H-pyrazolo[3,4-b]pyridin-5-yl)-methanone]: under “read-out: IC50”, the half-inhibitory concentration (IC50) fell in the range of 0.1 to 1 µM.

As for `Cc1n[nH]c2ncc(C(=O)N3CCC[C@H]3c3cccnc3)cc12` [compound 129, (3-Methyl-1H-pyrazolo[3,4-b]pyridin-5-yl)-((S)-2-pyridin-3-yl-pyrrolidin-1-yl)-methanone], the IC50 (read-out: IC50) is 0.1 to 1 µM. With `Nc1n[nH]c2ccc(C(=O)N3CCC[C@H]3c3ccccc3)cc12` [compound 131, (3-Amino-1H-indazol-5-yl)-((S)-2-phenyl-pyrrolidin-1-yl)-methanone], the 50% inhibitory concentration (IC50) (read-out: IC50) is 0.1 to 1 µM.

On to `Nc1n[nH]c2ccc(C(=O)N3CCC[C@@H]3c3ccccc3)cc12` [compound 132, (3-Amino-1H-indazol-5-yl)-((R)-2-phenyl-pyrrolidin-1-yl)-methanone], for which the half-inhibitory concentration (IC50) (read-out: IC50) is 0.1 to 1 µM. The compound `Nc1n[nH]c2ccc(C(=O)N3CC[C@H]3c3ccc(F)cc3)cc12` [compound 134, (3-Amino-1H-indazol-5-yl)-[(S)-2-(4-fluoro-phenyl)-azetidin-1-yl]-methanone] displayed an IC50 (IC50 [μM]) of 0.01 to 0.1 µM. For the compound `Nc1n[nH]c2ccc(C(=O)N3CC[C@@H]3c3ccc(F)cc3)cc12` [compound 135, (3-Amino-1H-indazol-5-yl)-[(R)-2-(4-fluoro-phenyl)-azetidin-1-yl]-methanone], for the setting “IC50 [μM]”, the IC50 was in the range of 0.1 to 1 µM. On to `Cc1ccc([C@@H]2CCCN2C(=O)c2cnc3[nH]nc(C)c3c2)cc1` [compound 136, (3-Methyl-1H-pyrazolo[3,4-b]pyridin-5-yl)-((S)-2-p-tolyl-pyrrolidin-1-yl)-methanone], for which the IC50 (read-out: IC50) is less than 0.01 µM.

On to `Cc1ccc([C@H]2CCCN2C(=O)c2cnc3[nH]nc(C)c3c2)cc1` [compound 137, (3-Methyl-1H-pyrazolo[3,4-b]pyridin-5-yl)-((R)-2-p-tolyl-pyrrolidin-1-yl)-methanone], for which, for the setting “read-out: IC50”, the IC50 lay within 1 to 10 µM. `Cc1n[nH]c2ncc(C(=O)N3CCC[C@@H](c4ccccc4)C3)cc12` [compound 139, (3-Methyl-1H-pyrazolo[3,4-b]pyridin-5-yl)-((S)-3-phenyl-piperidin-1-yl)-methanone]: the IC50 (read-out: IC50) was 0.1 to 1 µM. Turning to `COc1ccccc1C1CCCN1C(=O)c1cnc2[nH]nc(C)c2c1` (stereo not shown) [compound 141, [2-(2-Methoxy-phenyl)-pyrrolidin-1-yl]-(3-methyl-1H-pyrazolo[3,4-b]pyridin-5-yl)-methanone], the 50% inhibitory concentration (IC50) (read-out: IC50) is 0.1 to 1 µM. `COc1ccccc1[C@@H]1CCCN1C(=O)c1cnc2[nH]nc(C)c2c1` [compound 143, [(S)-2-(2-Methoxy-phenyl)-pyrrolidin-1-yl]-(3-methyl-1H-pyrazolo[3,4-b]pyridin-5-yl)-methanone]: the IC50 (read-out: IC50) lay within 0.01 to 0.1 µM. Consider `Cc1n[nH]c2ncc(C(=O)N3CC[C@@H](N)[C@H]3c3ccc(F)cc3)cc12` [compound 144, [(2R,3R)-3-Amino-2-(4-fluoro-phenyl)-pyrrolidin-1-yl]-(3-methyl-1H-pyrazolo[3,4-b]pyridin-5-yl)-methanone], for which the IC50 (read-out: IC50) is 0.01 to 0.1 µM. With `Cc1n[nH]c2ncc(C(=O)N3C[C@@H](O)C[C@H]3c3ccc(F)cc3)cc12` [compound 145, [(2S,4S)-2-(4-Fluoro-phenyl)-4-hydroxy-pyrrolidin-1-yl]-(3-methyl-1H-pyrazolo[3,4-b]pyridin-5-yl)-methanone], the IC50 (read-out: IC50) fell in the range of 0.1 to 1 µM.

With `Nc1n[nH]c2ccc(C(=O)N3CCCC3c3cccc(Cl)c3)cc12` (stereo not shown) [compound 147, (3-Amino-1H-indazol-5-yl)-[2-(3-chloro-phenyl)-pyrrolidin-1-yl]-methanone], the IC50 (read-out: IC50) fell in the range of 0.1 to 1 µM. Still for that read-out and setting: the result for `Nc1n[nH]c2ccc(C(=O)N3CCCC3c3ccccc3Cl)cc12` (stereo not shown) [compound 148, (3-Amino-1H-indazol-5-yl)-[2-(2-chloro-phenyl)-pyrrolidin-1-yl]-methanone] reads 0.1 to 1 µM; that for `Cc1n[nH]c2ncc(C(=O)N3CCCCC[C@H]3c3cccc(F)c3)cc12` [compound 150, [(S)-2-(3-Fluoro-phenyl)-azepan-1-yl]-(3-methyl-1H-pyrazolo[3,4-b]pyridin-5-yl)-methanone], 0.1 to 1 µM. For the compound `O=C(c1cnc2[nH]nc(C3CC3)c2c1)N1CCC[C@H]1c1ccc(Cl)cc1` [compound 152, [(S)-2-(4-Chloro-phenyl)-pyrrolidin-1-yl]-(3-cyclopropyl-1H-pyrazolo[3,4-b]pyridin-5-yl)-methanone], the IC50 (read-out: IC50) was less than 0.01 µM.

`O=C(c1cnc2[nH]nc(C3CC3)c2c1)N1CCC[C@@H]1c1ccc(Cl)cc1` [compound 153, [(R)-2-(4-Chloro-phenyl)-pyrrolidin-1-yl]-(3-cyclopropyl-1H-pyrazolo[3,4-b]pyridin-5-yl)-methanone]: where the note is “read-out: IC50”, the IC50 lay in the range of 0.1 to 1 µM. Regarding `O=C(c1ccc2[nH]ncc2c1)N1CCC[C@H]1c1ccc(Br)cc1` [compound 156], the IC50 (IC50 [μM]) is 0.01 to 0.1 µM.

On to `Cc1n[nH]c2ncc(C(=O)N3CCC[C@H]3c3ccc(C(F)(F)F)cc3)cc12` [compound 157, (3-Methyl-1H-pyrazolo[3,4-b]pyridin-5-yl)-[(S)-2-(4-trifluoromethyl-phenyl)-pyrrolidin-1-yl]-methanone], for which the IC50 (read-out: IC50) is less than 0.01 µM. Same read-out and setting: the result for `Cc1n[nH]c2ncc(C(=O)N3CCC(C)C3c3ccc(C(F)(F)F)cc3)cc12` (stereo not shown) [compound 159, (3-Methyl-1H-pyrazolo[3,4-b]pyridin-5-yl)-[3-methyl-2-(4-trifluoromethyl-phenyl)-pyrrolidin-1-yl]-methanone] reads 0.01 to 0.1 µM; that for `Cc1n[nH]c2ncc(C(=O)N3CC(C)CC3c3ccc(C(F)(F)F)cc3)cc12` (stereo not shown) [compound 160, (3-Methyl-1H-pyrazolo[3,4-b]pyridin-5-yl)-[4-methyl-2-(4-trifluoromethyl-phenyl)-pyrrolidin-1-yl]-methanone], 0.1 to 1 µM.

Turning to `Cc1n[nH]c2ncc(C(=O)N3CCCC3c3ccccc3OCC(F)(F)F)cc12` (stereo not shown) [compound 162, (3-Methyl-1H-pyrazolo[3,4-b]pyridin-5-yl)-{2-[2-(2,2,2-trifluoro-ethoxy)-phenyl]-pyrrolidin-1-yl}-methanone], the half-inhibitory concentration (IC50) lay in the range of 0.1 to 1 µM. For the compound `Nc1n[nH]c2ccc(C(=O)N3CCCC3c3ccc(Cl)c(F)c3)cc12` (stereo not shown) [compound 167, (3-Amino-1H-indazol-5-yl)-[2-(4-chloro-3-fluoro-phenyl)-pyrrolidin-1-yl] methanone], the IC50 (read-out: IC50) was 0.01 to 0.1 µM. For the compound `O=C(c1cnc2[nH]nc(C3CC3)c2c1)N1CCCCC1c1ccccc1` (stereo not shown) [compound 168, (3-Cyclopropyl-1H-pyrazolo[3,4-b]pyridin-5-yl)-(2-phenyl-piperidin-1-yl)-methanone], the IC50 (read-out: IC50) was 0.1 to 1 µM. On the same count and under the same terms, the result for `O=C(c1cnc2[nH]nc(C(F)(F)F)c2c1)N1CCCCC1c1ccccc1` (stereo not shown) [compound 169, (2-Phenyl-piperidin-1-yl)-(3-trifluoromethyl-1H-pyrazolo[3,4-b]pyridin-5-yl)-methanone] reads 0.1 to 1 µM.

On to `Cc1n[nH]c2ncc(C(=O)N3CC[C@@H](C)[C@H]3c3ccc(C(F)(F)F)cc3)cc12` [compound 172, (3-Methyl-1H-pyrazolo[3,4-b]pyridin-5-yl)-[(2S,3R)-3-methyl-2-(4-trifluoromethyl-phenyl)-pyrrolidin-1-yl]-methanone], for which the IC50 (read-out: IC50) is less than 0.01 µM. Consider `Cc1n[nH]c2ncc(C(=O)N3CC[C@@H]3c3ccc(F)cc3)cc12` [compound 175, [(R)-2-(4-Fluoro-phenyl)-azetidin-1-yl]-(3-methyl-1H-pyrazolo[3,4-b]pyridin-5-yl)-methanone], for which, under “read-out: IC50”, the IC50 was 0.1 to 1 µM.

The compound `Cc1n[nH]c2ccc(C(=O)N3CCOCC3c3ccc(Cl)cc3)cc12` (stereo not shown) [compound 178] yielded an IC50 (IC50 [μM]) of less than 0.01 µM. With `Cc1n[nH]c2ncc(C(=O)N3CCCC3c3ccc(Cl)c(F)c3)cc12` (stereo not shown) [compound 179, [2-(4-Chloro-3-fluoro-phenyl)-pyrrolidin-1-yl]-(3-methyl-1H-pyrazolo[3,4-b]pyridin-5-yl)-methanone], the IC50 (read-out: IC50) was 0.01 to 0.1 µM. The same measure, in the same setting: to `Cc1n[nH]c2ncc(C(=O)N3CCNC(c4ccccc4)C3)cc12` (stereo not shown) [compound 182, (3-Methyl-1H-pyrazolo[3,4-b]pyridin-5-yl)-(3-phenyl-piperazin-1-yl)-methanone] belongs 1 to 10 µM; to `O=C(c1cnc2[nH]nc(C(F)(F)F)c2c1)N1CCCC[C@@H]1c1ccccc1` [compound 183, ((R)-2-Phenyl-piperidin-1-yl)-(3-trifluoromethyl-1H-pyrazolo[3,4-b]pyridin-5-yl)-methanone], 0.1 to 1 µM. Take `O=C(c1cnc2[nH]nc(C(F)(F)F)c2c1)N1CCCC[C@H]1c1ccccc1` [compound 184, ((S)-2-Phenyl-piperidin-1-yl)-(3-trifluoromethyl-1H-pyrazolo[3,4-b]pyridin-5-yl)-methanone]: the IC50 (read-out: IC50) fell in the range of 0.1 to 1 µM.

As to `Cc1n[nH]c2ncc(C(=O)N3C[C@@H](C(N)=O)[C@H](c4ccc(Cl)cc4)C3)cc12` [compound 185, (3S,4R)-4-(4-Chloro-phenyl)-1-(3-methyl-1H-pyrazolo[3,4-b]pyridine-5-carbonyl)-pyrrolidine-3-carboxylic acid amide], where the note is “read-out: IC50”, the half-maximal inhibitory concentration (IC50) fell in the range of 1 to 10 µM. Still for that read-out and setting: to `Cc1n[nH]c2ncc(C(=O)N3C[C@H](C(N)=O)[C@@H](c4ccc(Cl)cc4)C3)cc12` [compound 186, (3R,4S)-4-(4-Chloro-phenyl)-1-(3-methyl-1H-pyrazolo[3,4-b]pyridine-5-carbonyl)-pyrrolidine-3-carboxylic acid amide] belongs 0.1 to 1 µM; to `Cc1n[nH]c2ncc(C(=O)N3CCCC3c3ccc(Cl)c(Cl)c3)cc12` (stereo not shown) [compound 188, [2-(3,4-Dichloro-phenyl)-pyrrolidin-1-yl]-(3-methyl-1H-pyrazolo[3,4-b]pyridin-5-yl)-methanone], 0.01 to 0.1 µM. As for `Cc1n[nH]c2cnc(C(=O)N3CCC[C@H]3c3ccc(Cl)cc3)cc12` [compound 190, [(S)-2-(4-Chloro-phenyl)-pyrrolidin-1-yl]-(3-methyl-1H-pyrazolo[3,4-c]pyridin-5-yl)-methanone], the half-maximal inhibitory concentration (IC50) (IC50 [μM]) was 0.01 to 0.1 µM.
